Source: PubChem BioAssay AID1963984 (Molecular Pharmacology Branch, DTP, NCI, 2024)

Tested on: 233499-124-R-J3-PDC spheroids with HUVEC/MSC, viability
Assay: Anticancer human tumor 233499-124-R-J3-PDC patient-derived colon adenocarcinoma cell line growth inhibition [PI3K]
Conditions: for IC50: curve of first compound; for viability, T/C: stronger effect = lower value
From the text: Combinatorial screen of targeted agents with the PI3K inhibitors inavolisib, alpelisib, duvelisib, and copanlisib in multi-cell type tumor spheroids
A high-throughput screen of multi-cell type tumor spheroids was designed to identify active combinations of targeted small molecules and PI3K pathway inhibitors. Complex spheroids include a stromal component modeled by human endothelial cells (HUVEC) and fibroblasts modeled by human mesenchymal stem cells (MSCs). The concentration ranges selected for each drug and investigational agent were based upon clinically achievable concentrations if the clinical Cmax of the agent was known.
Compounds. The drugs and investigational agents: inavolisib (NSC800729), alpelisib (NSC765974), duvelisib (NSC772469), copanlisib (NSC816437), ipatasertib (NSC767898), afuresertib (NSC778305), talazoparib (NSC767125), sapanisertib (NSC764658), selumetinib (NSC741078), tovorafenib (DAY101, NSC766906), vemurafenib (NSC761431), ravoxertinib (NSC781343), sotorasib (NSC818433), MRTX1133 (NSC 836407), abemaciclib (NSC 768073), palbociclib (NSC758247), venetoclax (NSC 766270), SY5609 (NSC837396), enzalutamide (NSC755605), and darolutamide (NSC825331), were obtained from the National Cancer Institute (NCI) Developmental Therapeutics Program Chemical Repository. The FDA-approved anticancer drug set is available from the NCI Developmental Therapeutics Program. […] The stock solutions were prepared in dimethyl sulfoxide (DMSO, Sigma-Aldrich, St. Louis, MO, cat. D2650) at 800-fold the tested concentration and stored at -70 degrees C prior to their use. All drugs and investigational agents were tested over a range starting from a high concentration at or near the clinical Cmax and decreasing in half-log increments. If the clinical Cmax for an agent had not been determined, the highest concentration tested was 10 microM.
Cell Culture. All cells were maintained in an incubator at 37 degrees C and 5% CO2 with 95% humidity. The PDC lines were cultured according to standard operating procedures established by the NCI PDMR (https://pdmr.cancer.gov/sops/default.htm). All PDCs were thawed and cultured in Matrigel-coated flasks prepared with a working solution of 1X Ham's F-12 nutrient mix, without supplementation (Invitrogen, Waltham, MA, cat. 11765054), 100 U/mL penicillin-streptomycin (Invitrogen, cat. 15140122), and 2.5% Matrigel (Corning Inc., Corning, NY, cat. 354248) for the first three passages. The 354836-022-R-J1-PDC, 475296-252-R-J1-PDC, and 997726-040-R-J2-PDC lines were cultured in 6A media, which includes advanced DMEM/F-12 (Thermo Fisher Scientific, cat. 12634028), 10 mM HEPES (Thermo Fisher Scientific, cat. 15630080), 1X GlutaMAX supplement (Thermo Fisher Scientific, cat. 35050061), 0.1 mg/mL primocin (InvivoGen, San Diego, CA, cat. ant-pm-2), 10% defined fetal bovine serum, heat inactivated (HyClone Laboratories Inc., Logan, UT, cat. SH30070.03HI), 50% L-WRN conditioned media (ATCC, cat. CRL-3276), 1.25 mM N-Acetyl-L-cysteine (Sigma-Aldrich, cat. A9165), 10 mM nicotinamide (Sigma-Aldrich, cat. N0636), 1X B-27 supplement (Thermo Fisher Scientific, cat. 17504044), 1X N-2 supplement (Thermo Fisher Scientific, cat. 17502048), and 10 microM Y-27632 dihydrochloride (Tocris Bioscience, Bristol, United Kingdom, cat. 1254). The 624824-186-R-J2-PDC line was cultured in 6C/Colon 1B media, which includes all 6A media components plus 50 ng/mL human EGF recombinant protein (Thermo Fisher Scientific, cat. PHG0311). […]
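Also: spheroids exposed to agents for seven days before readout.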
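For viability, T/C in this document: percent viability relative to DMSO vehicle control taken as 100%.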

Structure (SMILES): CNC(=O)c1ccc(N2C(=S)N(c3ccc(C#N)c(C(F)(F)F)c3)C(=O)C2(C)C)cc1F + CC(Nc1ccc2c(c1)OCCn1cc(N3C(=O)OCC3C(F)F)nc1-2)C(N)=O
- IC50 (second compound 0.00316 µM): 8070 nM
- IC50 (second compound 0.01 µM): > 10000 nM
- IC50 (second compound 0.0316 µM): > 10000 nM
- IC50 (second compound 0.1 µM): > 10000 nM
- IC50 (second compound 0.316 µM): > 10000 nM
- IC50 (second compound 1 µM): 145 nM
- viability, T/C (second compound 0.00316 µM, first compound 0.0316 µM): 85.8%
- viability, T/C (second compound 0.00316 µM, first compound 0.1 µM): 82.7%
- viability, T/C (second compound 0.00316 µM, first compound 0.316 µM): 79.2%
- viability, T/C (second compound 0.00316 µM, first compound 1 µM): 92%
- viability, T/C (second compound 0.00316 µM, first compound 3.16 µM): 78.3%
- viability, T/C (second compound 0.00316 µM, first compound 10 µM): 42.9%
- viability, T/C (second compound 0.01 µM, first compound 0.0316 µM): 88.3%
- viability, T/C (second compound 0.01 µM, first compound 0.1 µM): 98.5%
- viability, T/C (second compound 0.01 µM, first compound 0.316 µM): 95%
- viability, T/C (second compound 0.01 µM, first compound 1 µM): 76.9%
- viability, T/C (second compound 0.01 µM, first compound 3.16 µM): 71.2%
- viability, T/C (second compound 0.01 µM, first compound 10 µM): 72.2%
- viability, T/C (second compound 0.0316 µM, first compound 0.0316 µM): 88.9%
- viability, T/C (second compound 0.0316 µM, first compound 0.1 µM): 54.9%
- viability, T/C (second compound 0.0316 µM, first compound 0.316 µM): 76%
- viability, T/C (second compound 0.0316 µM, first compound 1 µM): 89.2%
- viability, T/C (second compound 0.0316 µM, first compound 3.16 µM): 88.1%
- viability, T/C (second compound 0.0316 µM, first compound 10 µM): 67.4%
- viability, T/C (second compound 0.1 µM, first compound 0.0316 µM): 84.7%
- viability, T/C (second compound 0.1 µM, first compound 0.1 µM): 71.8%
- viability, T/C (second compound 0.1 µM, first compound 0.316 µM): 94.4%
- viability, T/C (second compound 0.1 µM, first compound 1 µM): 77.9%
- viability, T/C (second compound 0.1 µM, first compound 3.16 µM): 69.5%
- viability, T/C (second compound 0.1 µM, first compound 10 µM): 55.6%
- viability, T/C (second compound 0.316 µM, first compound 0.0316 µM): 88.2%
- viability, T/C (second compound 0.316 µM, first compound 0.1 µM): 38%
- viability, T/C (second compound 0.316 µM, first compound 0.316 µM): 71.2%
- viability, T/C (second compound 0.316 µM, first compound 1 µM): 76.2%
- viability, T/C (second compound 0.316 µM, first compound 3.16 µM): 59.1%
- viability, T/C (second compound 0.316 µM, first compound 10 µM): 53.6%
- viability, T/C (second compound 1 µM, first compound 0.0316 µM): 52.5%
- viability, T/C (second compound 1 µM, first compound 0.1 µM): 52.1%
- viability, T/C (second compound 1 µM, first compound 0.316 µM): 42.8%
- viability, T/C (second compound 1 µM, first compound 1 µM): 50.2%
- viability, T/C (second compound 1 µM, first compound 3.16 µM): 43.7%
- viability, T/C (second compound 1 µM, first compound 10 µM): 34.6%

Structure (SMILES): Cn1cnc2c(F)c(Nc3ccc(Br)cc3Cl)c(C(=O)NOCCO)cc21 + CC(Nc1ccc2c(c1)OCCn1cc(N3C(=O)OCC3C(F)F)nc1-2)C(N)=O
- IC50 (second compound 0.00316 µM): 479 nM
- IC50 (second compound 0.01 µM): 541 nM
- IC50 (second compound 0.0316 µM): 262 nM
- IC50 (second compound 0.1 µM): 200 nM
- IC50 (second compound 0.316 µM): 134 nM
- IC50 (second compound 1 µM): 17.1 nM
- viability, T/C (second compound 0.00316 µM, first compound 0.00949 µM): 85%
- viability, T/C (second compound 0.00316 µM, first compound 0.03 µM): 80%
- viability, T/C (second compound 0.00316 µM, first compound 0.0949 µM): 75.1%
- viability, T/C (second compound 0.00316 µM, first compound 0.3 µM): 57%
- viability, T/C (second compound 0.00316 µM, first compound 0.949 µM): 38.4%
- viability, T/C (second compound 0.00316 µM, first compound 3 µM): 18.7%
- viability, T/C (second compound 0.01 µM, first compound 0.00949 µM): 79.7%
- viability, T/C (second compound 0.01 µM, first compound 0.03 µM): 85.1%
- viability, T/C (second compound 0.01 µM, first compound 0.0949 µM): 80.3%
- viability, T/C (second compound 0.01 µM, first compound 0.3 µM): 64.1%
- viability, T/C (second compound 0.01 µM, first compound 0.949 µM): 36.4%
- viability, T/C (second compound 0.01 µM, first compound 3 µM): 21.9%
- viability, T/C (second compound 0.0316 µM, first compound 0.00949 µM): 80.4%
- viability, T/C (second compound 0.0316 µM, first compound 0.03 µM): 90.6%
- viability, T/C (second compound 0.0316 µM, first compound 0.0949 µM): 78.7%
- viability, T/C (second compound 0.0316 µM, first compound 0.3 µM): 45.7%
- viability, T/C (second compound 0.0316 µM, first compound 0.949 µM): 30.2%
- viability, T/C (second compound 0.0316 µM, first compound 3 µM): 23.8%
- viability, T/C (second compound 0.1 µM, first compound 0.00949 µM): 77.6%
- viability, T/C (second compound 0.1 µM, first compound 0.03 µM): 60.8%
- viability, T/C (second compound 0.1 µM, first compound 0.0949 µM): 62.1%
- viability, T/C (second compound 0.1 µM, first compound 0.3 µM): 47.4%
- viability, T/C (second compound 0.1 µM, first compound 0.949 µM): 22.9%
- viability, T/C (second compound 0.1 µM, first compound 3 µM): 16.8%
- viability, T/C (second compound 0.316 µM, first compound 0.00949 µM): 70.2%
- viability, T/C (second compound 0.316 µM, first compound 0.03 µM): 82.6%
- viability, T/C (second compound 0.316 µM, first compound 0.0949 µM): 53.6%
- viability, T/C (second compound 0.316 µM, first compound 0.3 µM): 37.1%
- viability, T/C (second compound 0.316 µM, first compound 0.949 µM): 29.2%
- viability, T/C (second compound 0.316 µM, first compound 3 µM): 24.2%
- viability, T/C (second compound 1 µM, first compound 0.00949 µM): 57%
- viability, T/C (second compound 1 µM, first compound 0.03 µM): 42%
- viability, T/C (second compound 1 µM, first compound 0.0949 µM): 38.2%
- viability, T/C (second compound 1 µM, first compound 0.3 µM): 19.8%
- viability, T/C (second compound 1 µM, first compound 0.949 µM): 28.7%
- viability, T/C (second compound 1 µM, first compound 3 µM): 12.7%
